The results in this text go back to patent US20240124439A1, “Pyrido[2,3-D]Imidazole Derivatives and Their Use As Inhibitors of ITK for the Treatment of Skin Disease” (Pfizer Inc., priority 2020, published 2024).

The term IC50 denotes the midpoint of a concentration-inhibition curve. As a reminder, the inhibition is the drop in the measured response relative to a control, in per cent.

Test [1] concerns the target IL-2-Inducible T-Cell Kinase (ITK) (Homo sapiens (Human), UniProt Q08881). In words: ITK enzyme assay (IL-2-inducible T-cell kinase activity). Type of test: biochemical. Particulars: geometric mean of count n. The procedure, abridged: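 Full-length N-Flag/C-His human ITK, pre-incubated 30 min at RT with compound. Reaction in HEPES pH 7.5 buffer with MgCl2, glutathione, gelatin and Brij-35, started with BTK peptide substrate, 60 min at RT. EDTA stop, PT66/APC TR-FRET detection overnight; IC50 fitted by four-parameter logistic.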

Test [2] concerns activated CD4+ human T-cells (IL-2). In words: IL-2 inhibition in supernatants from activated CD4+ human T-cells (cisbio HTRF). Type of test: cell-based. Particulars: T-cell; CD3/CD28-activated CD4+ human T cells, ImmunoCult stimulation 20 to 24 hrs; geometric mean of count n. An outline of the steps:
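Primary human CD4+ T cells activated with CD3/CD28 for 3 days and expanded to 7-9 days total, plated at 30,000 cells/well. Cells preincubated 15 min with compound, then stimulated with ImmunoCult (1:50 final) for 20-24 h at 37° C. Supernatant IL-2 measured by HTRF (665/615 nm); IC50 from four-parameter logistic fit.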
A general note: TR-FRET usually uses a lanthanide donor and a delayed reading to cut background.

The target of test [3] is Tropomyosin Receptor Kinase A (TRKA), NTRK1 enzyme (Homo sapiens (Human), UniProt P04629). Kind of test: TRKA (NTRK1) ThermoFisher Z'-LYTE enzyme assay. Format: biochemical. Particulars: test compound 1 uM, ATP 1 mM; arithmetic mean of count n. The procedure: TRKA, also known as neurotrophic tyrosine kinase receptor type 1 (NTKR1) activity was determined by measuring the effect of a test compound on the activity against the NTRK1 enzyme using the ThermoFisher Z′-LYTE Assay fluorescence-based coupled enzyme format (www.thermofisher.com/selectscreen). Test compounds were screened at a fixed concentration of 1 uM and the % inhibition was determined compared to controls at a fixed ATP concentration of 1 mM. The resulting effect value for the tested compound was compared to the assay controls to determine the % inhibition (%).
Sequence of Tropomyosin Receptor Kinase A (TRKA), NTRK1 enzyme (P04629 33-796): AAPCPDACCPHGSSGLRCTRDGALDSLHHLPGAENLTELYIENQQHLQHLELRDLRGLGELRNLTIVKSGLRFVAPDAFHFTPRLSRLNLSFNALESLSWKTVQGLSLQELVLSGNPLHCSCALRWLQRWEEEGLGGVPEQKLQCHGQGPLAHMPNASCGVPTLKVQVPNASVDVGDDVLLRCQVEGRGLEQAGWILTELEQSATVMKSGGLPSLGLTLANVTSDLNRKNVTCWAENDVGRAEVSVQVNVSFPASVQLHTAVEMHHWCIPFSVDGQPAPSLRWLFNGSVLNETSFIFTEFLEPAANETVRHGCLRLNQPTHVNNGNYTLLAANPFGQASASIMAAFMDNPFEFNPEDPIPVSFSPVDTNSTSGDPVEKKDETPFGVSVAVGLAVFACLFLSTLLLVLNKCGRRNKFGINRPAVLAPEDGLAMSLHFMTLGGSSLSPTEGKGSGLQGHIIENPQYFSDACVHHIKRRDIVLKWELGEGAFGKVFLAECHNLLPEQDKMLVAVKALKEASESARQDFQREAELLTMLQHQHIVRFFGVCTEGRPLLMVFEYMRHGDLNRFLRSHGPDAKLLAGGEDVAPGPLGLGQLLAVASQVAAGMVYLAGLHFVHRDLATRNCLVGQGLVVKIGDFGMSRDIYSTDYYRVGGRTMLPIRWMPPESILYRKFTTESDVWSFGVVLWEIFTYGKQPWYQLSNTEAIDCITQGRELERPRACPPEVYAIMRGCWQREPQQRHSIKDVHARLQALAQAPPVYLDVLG

Sequence of IL-2-Inducible T-Cell Kinase (ITK) (Q08881 whole entry): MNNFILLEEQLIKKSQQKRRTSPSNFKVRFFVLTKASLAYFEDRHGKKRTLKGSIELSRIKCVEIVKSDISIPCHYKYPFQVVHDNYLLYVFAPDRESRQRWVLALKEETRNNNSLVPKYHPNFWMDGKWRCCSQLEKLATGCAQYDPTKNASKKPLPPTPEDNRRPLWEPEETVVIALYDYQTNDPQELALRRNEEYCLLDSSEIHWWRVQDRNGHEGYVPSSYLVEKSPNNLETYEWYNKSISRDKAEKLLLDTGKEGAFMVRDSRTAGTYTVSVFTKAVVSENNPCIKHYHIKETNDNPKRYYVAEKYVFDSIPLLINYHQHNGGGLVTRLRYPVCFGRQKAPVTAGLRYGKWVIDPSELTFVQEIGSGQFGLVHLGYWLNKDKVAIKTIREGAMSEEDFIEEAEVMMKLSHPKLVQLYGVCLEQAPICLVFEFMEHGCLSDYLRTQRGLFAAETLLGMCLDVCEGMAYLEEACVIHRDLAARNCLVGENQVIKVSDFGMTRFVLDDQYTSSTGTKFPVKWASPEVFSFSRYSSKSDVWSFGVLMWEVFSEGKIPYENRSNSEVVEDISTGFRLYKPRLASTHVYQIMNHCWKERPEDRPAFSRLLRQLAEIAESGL

Consider `CN(C(=O)CN1CCCOC1=O)c1cnc2nc(-c3n[nH]c4c3C[C@@H]3C[C@]3(C)C4)[nH]c2c1` [Example 57, N-Methyl-N-(2-((4aS,5aR)-5a-methyl-1,4,4a,5,5a,6-hexahydrocyclopropa[f]indazol-3-yl)-1H-imidazo[4,5-b]pyridin-6-yl)-2-(2-oxo-1,3-oxazinan-3-yl)acetamide], for which the figures for the IC50 in test [1] and in test [2] were 0.036 µM and 0.974 µM, respectively. In addition, the inhibition at 1 µM in test [3] amounted to 106%.

Regarding `CN(C(=O)CN1CCOCC1)c1cnc2nc(-c3n[nH]c4c3C[C@@H]3C[C@]3(C)C4)[nH]c2c1` [Example 58, N-Methyl-N-(2-((4aS,5aR)-5a-methyl-1,4,4a,5,5a,6-hexahydrocyclopropa[f]indazol-3-yl)-1H-imidazo[4,5-b]pyridin-6-yl)-2-morpholinoacetamide], the results for the IC50 in test [1] and in test [2] were 0.102 µM and 0.38 µM, respectively. Besides, the inhibition at 1 µM in test [3] was determined as 108%.

With `CN(C(=O)C1(F)CCOCC1)c1cnc2nc(-c3n[nH]c4c3C[C@@H]3C[C@]3(C)C4)[nH]c2c1` [Example 61, 4-Fluoro-N-methyl-N-(2-((4aS,5aR)-5a-methyl-1,4,4a,5,5a,6-hexahydrocyclopropa[f]indazol-3-yl)-1H-imidazo[4,5-b]pyridin-6-yl)tetrahydro-2H-pyran-4-carboxamide], the IC50 came to 0.023 µM in test [1] and 0.088 µM in test [2]. In addition, the inhibition at 1 µM in test [3] stood at 95%.

On to `CC(=O)N(C)CC(=O)N(C)c1cnc2nc(-c3n[nH]c4c3C[C@@H]3C[C@]3(C)C4)[nH]c2c1` [Example 80, N-Methyl-N-(2-((4aS,5aR)-5a-methyl-1,4,4a,5,5a,6-hexahydrocyclopropa[f]indazol-3-yl)-1H-imidazo[4,5-b]pyridin-6-yl)-2-(N-methylacetamido)acetamide], for which the concentration for half-maximal inhibition (IC50) in test [1] amounted to 0.054 µM; in test [2] it was 1.25 µM. For the same molecule, the inhibition at 1 µM in test [3] was determined as 96%.

Turning to `CN(c1cnc2nc(-c3n[nH]c4c3C[C@@H]3C[C@]3(C)C4)[nH]c2c1)C(=O)[C@H]1C[C@H](C)C1` [Example 84, (1r,3S)-N,3-Dimethyl-N-(2-((4aS,5aR)-5a-methyl-1,4,4a,5,5a,6-hexahydrocyclopropa[f]indazol-3-yl)-1H-imidazo[4,5-b]pyridin-6-yl)cyclobutane-1-carboxamide], the half-maximal inhibitory concentration (IC50) in test [1] amounted to 0.031 µM; in test [2] it was 0.288 µM. Also, in test [3], the inhibition at 1 µM came out at 96%.

With `CN(C(=O)C(C)(C)C)c1cnc2nc(-c3n[nH]c4c3C[C@@H]3C[C@]3(C)C4)[nH]c2c1` [Example 86, N-Methyl-N-(2-((4aS,5aR)-5a-methyl-1,4,4a,5,5a,6-hexahydrocyclopropa[f]indazol-3-yl)-1H-imidazo[4,5-b]pyridin-6-yl)pivalamide], the IC50 was 0.1 µM in test [1] and 0.466 µM in test [2]. Moreover, in test [3], the inhibition at 1 µM amounted to 95%.

On to `CN(C(=O)C1(F)CCC1)c1cnc2[nH]c(-c3n[nH]c4c3CCC(C)(C)C4)nc2c1` [Example 95, N-(2-(6,6-Dimethyl-4,5,6,7-tetrahydro-1H-indazol-3-yl)-3H-imidazo[4,5-b]pyridin-6-yl)-1-fluoro-N-methylcyclobutane-1-carboxamide], for which the IC50 in test [1] turned out to be 0.064 µM; in test [2] it was 0.266 µM. For the same molecule, the inhibition at 1 µM in test [3] is 93%.

Take `CN(C(=O)CCC(C)(F)F)c1cnc2[nH]c(-c3n[nH]c4c3CCC(C)(C)C4)nc2c1` [Example 97, N-(2-(6,6-Dimethyl-4,5,6,7-tetrahydro-1H-indazol-3-yl)-3H-imidazo[4,5-b]pyridin-6-yl)-4,4-difluoro-N-methylpentanamide]: the IC50 worked out at 0.056 µM in test [1] and 0.287 µM in test [2]. In addition, in test [3], the inhibition at 1 µM was 92%.
